The source of these data is ChEMBL document CHEMBL1124077, “Photoaffinity labeling adenosine A1 receptors with an antagonist 125I-labeled aryl azide derivative of 8-phenylxanthine” (J Med Chem, 1988).

Assay [1] has as its target T1, Adenosine receptor A1 (Rattus norvegicus) (UniProt P25099).
T1 sequence (whole entry): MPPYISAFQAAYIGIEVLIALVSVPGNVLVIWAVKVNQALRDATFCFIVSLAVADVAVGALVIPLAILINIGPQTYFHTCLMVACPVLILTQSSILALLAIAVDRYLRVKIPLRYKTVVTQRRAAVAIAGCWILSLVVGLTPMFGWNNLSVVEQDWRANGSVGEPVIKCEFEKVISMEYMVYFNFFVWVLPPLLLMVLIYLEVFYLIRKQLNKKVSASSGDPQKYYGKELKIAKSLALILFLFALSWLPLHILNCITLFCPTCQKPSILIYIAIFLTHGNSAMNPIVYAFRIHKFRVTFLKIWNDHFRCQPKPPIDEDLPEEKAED
Kind of assay: Bmax value against A1 receptor.

Assay [2] concerns the target T2, Adenosine receptor A1 (Rattus norvegicus, UniProt P25099).
T2 sequence (P25099 whole entry): T1 sequence (whole entry)
The experiment in a line: Binding affinity towards adenosine A1 receptor in rat brain membrane(KD). In kind it is tissue-based.

The target in assay [3] is T2, Adenosine receptor A1. Kind of assay: Inhibition of photolabeling of 34 kDa polypeptide in adenosine A1 receptor.

The compound `CCCn1c(=O)c2nc(-c3ccc(OCC(=O)O)cc3)[nH]c2n(Cc2ccc(N)c(I)c2)c1=O` registered a Bmax in assay [1] of 485 fmol/mg. For the same compound, the dissociation constant (Kd) (usually the equilibrium constant for the complex coming apart) in assay [2] was found to be 0.8 nM. On to `CCCn1c(=O)c2nc(-c3ccc(OCC(=O)O)cc3)[nH]c2n(CCc2ccc(N)cc2)c1=O`, for which the IC50 (in general, the concentration at which inhibition is half-maximal) in assay [3] was found to be 16 nM. For `CCCn1c(=O)c2nc(-c3ccc(OCC(=O)O)cc3)[nH]c2n(CCc2ccc(N=[N+]=[N-])c(I)c2)c1=O`, in assay [2], the dissociation constant Kd came out at 1.2 nM. In assay [1], `CCCn1c(=O)c2nc(-c3ccc(OCC(=O)O)cc3)[nH]c2n(CCc2ccc(N)c(I)c2)c1=O` gave a Bmax of 485 fmol/mg. This compound showed a dissociation constant Kd in assay [2] of 0.8 nM.
